According to patent US6784164B2, “Choline binding proteins for anti-pneumococcal vaccines” (priority 1996, dated 2004):
Like-named read-outs stand apart in the source and are kept apart here. No end group written: not given here.

Legend:
[1] = tested on: Adherence of S. pneumoniae to immobilized fibronectin; assay type: cell-based; details: for inhibition of pneumococcal adherence to fibronectin: added to coated wells 15 min prior to bacteria
Experimental: (§1) Fibronectin, its recombinant fragments, or rsVCAM were noncovalently immobilized through passive adsorption to 60 well Terasaki trays (wettable polystyrene [plasma treated], Robbins Scientific, Sunnyvale, Calif.). Briefly, substrates were reconstituted ([…]) in phosphate buffered saline (DPBS) and allowed to coat the Teresaki trays for 90 min at 37° C. […] Prior to use, the plates were washed five times with DPBS and excess liquid was removed from the wells.
(§2) Bacteria were labeled with fluorescein isothyocyanate as described [Geelen et al., Infect. Immun., 61:1538-1543 (1993)] and were resuspended in DPBS supplemented with 0.05% glucose and Ca^++ and Mg^++. Bacterial suspensions were brought to an A620 of 0.04, previously established to equal 1×10^7 cfu/ml of S. pneumoniae. 10 μl of bacteria were added to each well and incubated statically for 1 hour at 37° C. Unbound bacteria were eliminated by washing five times with DPBS. Bound bacteria were fixed to the surface by incubation with 2.5% glutaraldehyde solution for 3 minutes. Bacteria were counted visually with an inverted microscope (Nikon) equipped for fluorescence with an IF DM 510 filter. Binding was expressed as the number of attached bacteria per 0.25 mm^2 surface area. Values were corrected for non-specific binding by subtracting adherence to uncoated wells and are presented as the mean±standard deviation of at least 3 experiments with 3 to 6 wells/plate/experiment. For some experiments, binding was performed in the presence of rabbit polyclonal anti-pneumococcus R6 antibody or one of the following monoclonal antibodies: anti-choline (TEPC-15), anti-PspA Xi126 and XiR278 [McDaniel et al., Microb. Pathog., 13:261-9 (1992)]; anti-pneumococcal surface adhesin A PsaA [Sampson et al., Infect. Immun., 62:319-324 (1994)]; anti-VLA-4 (R & D Systems); and anti-VCAM-1 (R & D Systems). Alternatively, potential inhibition of pneumococcal binding was assessed in the presence of purified recombinant PspA or PsaA.

[2] = Antigenicity: CBPs injected into rabbits, sera tested by Western blot; design: species or system rabbit
Experimental: Vaccine candidates must be antigenic. The CBPs from choline agarose chromatography were injected into rabbits and sera tested for cross reactivity. Several proteins produced a strong signal. Prominent were CBPs 112, 90, 84 and 70, and 50 (FIGS. 1 and 2).
White rabbits were immunized by intradermal injection in the back with 500 μg purified CBPs in 1 ml of a 1:1 emulsion of buffer and Complete Freund's Adjuvant. The rabbits were boosted with a subcutaneous dorsal injection of 250 μg of purified CBPs in 1 ml of 1:1 buffer to Incomplete Freund's Adjuvant at weeks 3, 6, 9, 12, and 15. Rabbits were pre-bled, and test bled approximately 10 days prior to each boost. Serum obtained at week 16 were used in all experiments.
(§3) The CBPs were examined by SDS-PAGE and Western blot using the following antibodies: (1) polyclonal anti-pneumococcal serum (rabbit or “ROB”); (2) anti-PspA monoclonal antibody; (3) anti-FITC monoclonal antibody; (4) convalescent human anti-pneumococcal sera and (5) polyclonal anti-CBP antibody. 9 CBPs were identified on SDS-PAGE/Western blot.

S. pneumoniae = assay: Direct adherence of S. pneumoniae to wells coated with VCAM-1, fibronectin fragments, peptides or enolase; assay type: cell-based
Experimental: as §1, §2

[3] = Western blot of CBPs with pooled human convalescent sera
Experimental: as §3
The CBPs were analyzed by 7.5% sodium dodecyl sulfate polyacrylamide gel electrophoresis (SDS-PAGE) and by Western blotting after electrophoretic transfer to an Immobilon-P transfer membrane (Millipore Corporation, Bedford, Mass.). For some experiments, pneumococci were labelled with fluorescein isothiocyanate (FITC) as described in the adherence assay. Western blot analysis was carried out with anti-FITC (Moleular Probes), anti-CBP or covalescent antisera each at a dilution of 1:1000. Bound antibody was detected with peroxidase conjugated goat anti-rabbit serum detected with the Chemiluminesce Kit from Amersham (Cambridge, Mass.). The convalescent sera was a mixture of sera pooled from five patients collected one month after recovery from bacteremia and pneumonia. The capsular serotypes of these infecting pneumococci were 3, 7, 14, 22, and 23.

NCCCCCC(=O)O [6-amino hexanoic acid]
inhibition of pneumococcal adherence to fibronectin (in words) [1]: not able to inhibit adherence

NCCCC[C@H](N)C(=O)O [L-lysine]
inhibition of pneumococcal adherence to fibronectin ([1]; 0.1 M): 67%
inhibition of pneumococcal adherence to fibronectin ([1]; 0.5M): 95%
inhibition of pneumococcal adherence to fibronectin ([1]; 1 M): 99%

C[N+](C)(C)CCO [choline]
decrease in binding of pneumococci to fibronectin ([1]; preincubation of bacteria in 10% choline solution): greater than 50%

CBP84: pneumococcal choline binding protein, SEQ ID NO:3, 85% identical to Elongation Factor G (XREFSLEKTRNIGIMAHVDAGKT; X: residue not identified in the source)
signal with sera of rabbits injected with CBPs [2]: strong signal

WQPPRARI [FN5]
direct adherence of S. pneumoniae to coated substrate (in words) (S. pneumoniae): able to support adherence

B1: 2-phospho-D-glycerate hydrolyase (protein, UniProt P00924 2-437, looked up)
Enolase 1: AVSKVYARSVYDSRGNPTVEVELTTEKGVFRSIVPSGASTGVHEALEMRDGDKSKWMGKGVLHAVKNVNDVIAPAFVKANIDVKDQKAVDDFLISLDGTANKSKLGANAILGVSLAASRAAAAEKNVPLYKHLADLSKSKTSPYVLPVPFLNVLNGGSHAGGALALQEFMIAPTGAKTFAEALRIGSEVYHNLKSLTKKRYGASAGNVGDEGGVAPNIQTAEEALDLIVDAIKAAGHDGKIKIGLDCASSEFFKDGKYDLDFKNPNSDKSKWLTGPQLADLYHSLMKRYPIVSIEDPFAEDDWEAWSHFFKTAGIQIVADDLTVTNPKRIATAIEKKAADALLLKVNQIGTLSESIKAAQDSFAAGWGVMVSHRSGETEDTFIADLVVGLRTGQIKTGAPARSERLAKLNQLLRIEEELGDNAVFAGENFHHGDKL
notes: glycolytic enzyme enolase (Sigma), yeast
maximum inhibition of pneumococcal adherence to fibronectin ([1]; 1000 U/ml, added to fibronectin coated wells prior to bacteria): 98%
direct adherence of S. pneumoniae to coated substrate (in words) (S. pneumoniae): No direct adherence

B2: CBP112: 112 kDa surface exposed pneumococcal choline binding protein, N-terminal SEQ ID NO:1 (protein)
chain: MMREIQLDRRKHTQNVALNIKLSAIKTKYLRELNVLEEKSKDELPSEIKAKLDAAFEKFKKDTLKPGEKVAEAKKKVEEAKKKAEDQKEEDRRNYPTNTYKTLELEIAEFDVKVKEAELELVKEEAKESRNEGTIKQAKEKVESKKAEATRLENIKTDRKKAEEEAKRKADAKLKEANVATSDQGKPKGRAKRGVPGELATPDKKENDAKSSDSSVGEETLPSSSLKSGKKVAEAEKKVEEAEKKAKDQKEEDRRNYPTNTYKTLDLEIAESDVKVKEAELELVKEEAKEPRDEEKIKQAKAKVESKKAEATRLENIKTDRKKAEEEAKRKAAEEDKVKEKPAEQPQPAPATQPEKPAPKPEKPAEQPKAEKTDDQQAEEDYARRSEEEYNRLTQQQPPKTEKPAQPSTPKTGWKQENGMWYFYNTDGSMATGWLQNNGSWYYLNANGAMATGWLQNNGSWYYLNANGSMATGWLQNNGSWYYLNANGAMATGWLQYNGSWYYLNSNGAMATGWLQYNGSWYYLNANGDMATGWLQNNGSWYYLNANGDMATGWLQYNGSWYYLNANGDMATGWVKDGDTWYYLEASGAMKASQWFKVSDKWYYVNGSGALAVNTTVDGYGVNANGEWVNZ
signal with sera of rabbits injected with CBPs [2]: strong signal
signal with pooled human antisera from individuals recovering from pneumococcal disease [3]: strong signal

B3: rsVCAM: recombinant soluble vascular cell adhesion molecule-1 (protein)
chain: FKIETTPESRYLAQIGDSVSLTCSTTGCESPFFSWRTQIDSPLNGKVTNEGTTSTLTMNPVSFGNEHSYLCTATCESRKLEKGIQVEIYSFPKDPEIHLSGPLEAGKPITVKCSVADVYPFDRLEIDLLKGDHLMKSQEFLEDADRKSLETKSLEVTFTPVIEDIGKVLVCRAKLHIDEMDSVPTVRQAVKELQVYISPKNTVISVNPSTKLQEGGSVTMTCSSEGLPAPEIFWSKKLDNGNLQHLSGNATLTLIAMRMEDSGIYVCEGVNLIGKNRKEVELIVQEKPFTVEISPGPRIAAQIGDSVMLTCSVMGCESPSFSWRTQIDSPLSGKVRSEGTNSTLTLSPVSFENEHSYLCTVTCGHKKLEKGIQVELYSFPRDPEIEMSGGLVNGSSVTVSCKVPSVYPLDRLEIELLKGETILENIEFLEDTDMKSLENKSLEMTFIPTIEDTGKALVCQAKLHIDDMEFEPKQRQSTQTLYVNVAPRDTTVLVSPSSILEEGSSVNMTCLSQGFPAPKILWSRQLPNGELQPLSENATLTLISTKMEDSGVYLCEGINQAGRSRKEVELIIQVTPKDIKLTAFPSESVKEGDTVIISCTCGNVPETWIILKKKAETGDTVLKSIDGAYTIRKAQLKDAGVYECESKNKVGSQLRSLTLDVQGRENNKDYFSPE
inhibition of adherence of S. pneumoniae to fibronectin ([1]; preincubation of the bacteria with the substance): 96%
density of S. pneumoniae adhering directly to coated wells (S. pneumoniae): 75±18 bacteria/0.25 mm ^2
direct adherence as share of adherence to whole fibronectin (S. pneumoniae): 6%
